ChEMBL document CHEMBL1681698, “HY251, a novel decahydrocyclopenta[a]indene analog, from Aralia continentalis induces apoptosis via down-regulation of AR expression in human prostate cancer LNCaP cells” (Bioorg Med Chem Lett, 2011)
Calls of active or inactive are those of the source. No cut-off for these calls is given here.

What was measured:
[1] = test system: LNCaP; test: Induction of apoptosis in human androgen-dependent LNCAP cells assessed as inhibition of androgen receptor gene expression at 95 uM by RT-PCR analysis; format: functional, cell-based
[2] = test system: LNCaP; test: Induction of apoptosis in human androgen-dependent LNCAP cells assessed as inhibition of PSA gene expression at 95 uM by RT-PCR analysis in presence of 1 nM […]; format: functional, cell-based
[3] = test system: LNCaP; test: Induction of apoptosis in human androgen-dependent LNCAP cells assessed as cytochrome c release from mitochondria at 95 uM after 24 hrs by Western blot analysis; format: functional, cell-based
[4] = test system: LNCaP; test: Induction of apoptosis in human androgen-dependent LNCAP cells assessed as […] after 24 hrs by MTT assay; format: functional, cell-based
[5] = test system: LNCaP; test: Induction of apoptosis in human androgen-dependent LNCAP cells assessed as inhibition of PSA protein expression at 95 uM by Western blot analysis; format: functional, cell-based; settings: TDE = time-dependent effect
[6] = test system: LNCaP; test: Induction of apoptosis in human androgen-dependent LNCAP cells assessed as nuclei DNA fragmentation at 95 uM after 24 hrs by TUNEL assay; format: functional, cell-based
[7] = test system: LNCaP; test: Induction of apoptosis in human androgen-dependent LNCAP cells assessed as increase in active caspase 9 at 95 uM up to 48 hrs by Western blot analysis; format: functional, cell-based
[8] = test system: LNCaP; test: Induction of apoptosis in human androgen-dependent LNCAP cells assessed as increase in active caspase 3 at 95 uM up to 48 hrs by Western blot analysis; format: functional, cell-based
[9] = test system: LNCaP; test: Induction of apoptosis in human androgen-dependent LNCAP cells assessed as PARP cleavage at 95 uM after 12 hrs by Western blot analysis; format: functional, cell-based
[10] = Induction of apoptosis in human hormone-refractory C4-2B cells assessed as cell viability after 24 hrs by MTT assay; format: functional; settings: LNCaP C4-2B
[11] = test system: LNCaP; test: Induction of apoptosis in human androgen-dependent LNCAP cells assessed as inhibition of androgen receptor gene expression at 95 uM by RT-PCR analysis in presence of 1 nM […]; format: functional, cell-based
[12] = test system: LNCaP; test: Induction of apoptosis in human androgen-dependent LNCAP cells assessed as inhibition of androgen receptor expression at 95 uM by Western blot analysis; format: functional, cell-based; settings: TDE = time-dependent effect
[13] = test system: LNCaP; test: Induction of apoptosis in human androgen-dependent LNCAP cells assessed as inhibition of PSA gene expression at 95 uM by RT-PCR analysis; format: functional, cell-based

- IC50 [4]: 95 µM
Structure (SMILES): C=CC1CC2(O)CC3(O)CCC=CC3C2(O)C1(O)CCC (stereo not drawn)
- Activity [1]: Active
- Activity [2]: Active
- Activity [3]: Active
- Activity [5]: tde
- Activity [6]: Active
- Activity [7]: Active
- Activity [8]: Active
- Activity [9]: Active
- IC50 [10]: 199 µM
- Activity [11]: Active
- Activity [12]: tde
- Activity [13]: Active
